Experimental findings from ChEMBL document CHEMBL1201862, “PubChem BioAssay data set” (2004) are described below.

Test systems include CAKI-1; HCC 2998; HCT-15; HL-60; HOP-92; HT-29; IGROV-1; MCF7; MDA-MB-231; NCI-H460; OVCAR-5; PC-3; RPMI-8226; SF-268; SF-295; SNB-19; SR; SW-620; T47D; U-251.
Common to all, as to test: NCI tumour cell line growth inhibition, 48 h

Molecules are shown by their SMILES.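 Where inhibition never reached the appropriate level, the endpoint shown equals the highest concentration tested. Otherwise, values were interpolated linearly from a five-concentration, 48-hour dose response in 96-well plates. GI50: concentration for 50% inhibition of growth.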 Activity calls are given as the source filed them. Rule as the data show it: active = GI50 up to about 1.1 µM and inactive = higher. Where a SMILES comes first, the peptide text is derived from it. The star is where a group is joined. Fmoc = O=C(OCC1c2ccccc2-c2ccccc21)*; OBn = c1ccc(CO*)cc1; tBu = CC(C)(C)*

Turning to `CC(OC(C)(C)C)C(NC(=O)OCC1c2ccccc2-c2ccccc21)C(=O)NC(Cc1ccccc1)C(=O)OCc1ccccc1` (stereo not given) (Fmoc-Thr(tBu)-Phe-OBn; configuration not given here), the GI50 in the assay on CAKI-1 is > 100 µM (inactive); with HCC 2998 it was > 100 µM (inactive); with HCT-15, above 100 µM; in the assay on HL-60 it was > 100 µM (inactive); with HOP-92, > 21.2 µM (inactive); with HT-29 it was > 100 µM (inactive). The GI50 in the assay with IGROV-1 is > 100 µM (inactive); with MCF7 it was > 100 µM (inactive); in the assay with MDA-MB-231 it was > 48.4 µM (inactive); with NCI-H460 it was > 100 µM (inactive); in the assay on OVCAR-5, > 100 µM (inactive); with PC-3, > 100 µM (inactive). Moreover, the GI50 in the assay with RPMI-8226 is > 71.8 µM (inactive); in the assay with SF-268 it was > 100 µM (inactive); with SF-295, > 100 µM (inactive); with SNB-19 it was > 100 µM (inactive); with SR, > 87.9 µM (inactive); in the assay on SW-620 it was > 100 µM (inactive). Moreover, the GI50 was > 76.7 µM (inactive) in the assay with T47D and > 100 µM (inactive) in the assay with U-251.
For `Cc1occc1C(=S)Nc1ccc(Cl)c(/C=N/OC(C)C)c1`, the GI50 is 17.3 µM (inactive) in the assay with CAKI-1; 26.5 µM (inactive) in the assay on HCC 2998; 17.4 µM with HCT-15; 26.7 µM (inactive) in the assay with HL-60; 16.1 µM (inactive) with HOP-92; 19.3 µM (inactive) in the assay with HT-29. For the same molecule, the GI50 with IGROV-1 was 27.8 µM (inactive); in the assay with MCF7 it was 19.1 µM (inactive); in the assay on MDA-MB-231, 16.4 µM (inactive); in the assay on NCI-H460, 21 µM (inactive); in the assay with OVCAR-5 it was 21 µM (inactive); in the assay with PC-3, 24.9 µM (inactive). Further, the GI50 in the assay with RPMI-8226 was 20 µM (inactive); with SF-268, 28.1 µM (inactive); in the assay with SF-295, 18.3 µM (inactive); with SNB-19, 27.1 µM (inactive); in the assay on SR it was 21.1 µM (inactive); in the assay with SW-620 it was 20.9 µM (inactive). Besides, the figures for the GI50 with T47D and with U-251 were 12.1 µM (inactive) and 19.5 µM (inactive), respectively.
As to `N#Cc1nc(/C=C/c2ccccc2)oc1N`, the GI50 was > 100 µM (inactive) in the assay with CAKI-1; > 100 µM (inactive) in the assay with HCC 2998; above 100 µM in the assay on HCT-15; > 10 µM (inactive) in the assay on HL-60; > 100 µM (inactive) with HOP-92; > 100 µM (inactive) in the assay with HT-29. Moreover, the GI50 in the assay with IGROV-1, with MCF7, in the assay with MDA-MB-231, in the assay on NCI-H460, in the assay on OVCAR-5 and with PC-3 was > 100 µM (inactive) each time. Besides, the GI50 with RPMI-8226 is 34.5 µM (inactive); with SF-268, > 100 µM (inactive); in the assay with SF-295 it was > 100 µM (inactive); in the assay on SNB-19 it was > 100 µM (inactive); in the assay with SR, 0.252 µM (active); in the assay with SW-620, > 100 µM (inactive). Further, the GI50 with T47D and in the assay on U-251 was > 100 µM (inactive) each time.
In the case of `Oc1c([Si](c2ccccc2)(c2ccccc2)c2ccccc2)cc2ccccc2c1-c1c(O)c([Si](c2ccccc2)(c2ccccc2)c2ccccc2)cc2ccccc12`, the GI50 was > 100 µM (inactive) in the assay with CAKI-1; > 100 µM (inactive) with HCC 2998; above 100 µM in the assay on HCT-15; > 100 µM (inactive) in the assay with HL-60; > 100 µM (inactive) in the assay with HOP-92; > 100 µM (inactive) in the assay on HT-29. Moreover, the GI50 in the assay on IGROV-1, in the assay with MCF7, in the assay on MDA-MB-231, in the assay on NCI-H460, in the assay on OVCAR-5 and in the assay with PC-3 was > 100 µM (inactive) in each case. Also, the GI50 in the assay on RPMI-8226, with SF-268, in the assay on SF-295, in the assay on SNB-19, in the assay with SR and in the assay on SW-620 was > 100 µM (inactive) throughout. Also, the GI50 in the assay with T47D and in the assay on U-251 was > 100 µM (inactive) throughout.
On to `Cc1ccc(/N=N\c2c(O)c(S(=O)(=O)O)cc3cc(S(=O)(=O)O)ccc23)c(C)c1`, for which the GI50 was > 100 µM (inactive) in the assay on CAKI-1; > 100 µM (inactive) in the assay with HCC 2998; above 100 µM in the assay with HCT-15; > 100 µM (inactive) with HL-60; > 100 µM (inactive) in the assay with HOP-92; > 100 µM (inactive) with HT-29. The GI50 with IGROV-1, in the assay with MCF7, in the assay on MDA-MB-231, with NCI-H460, with OVCAR-5 and in the assay on PC-3 was > 100 µM (inactive) throughout. In addition, the GI50 in the assay on RPMI-8226, in the assay on SF-268, with SF-295, in the assay on SNB-19, with SR and in the assay on SW-620 was > 100 µM (inactive) in each case. The GI50 in the assay with T47D and with U-251 was > 100 µM (inactive) in each case.
As for `O=C1OC(C2OC(=O)c3cc(O)c(O)c(O)c3-c3c(O)c(O)c4oc(=O)c5c(c(O)c(O)c6oc(=O)c3c4c65)-c3c(cc(O)c(O)c3O)C(=O)OCC2O)C2OC(=O)c3c(c(O)c(O)c(O)c3[C@H]2O)-c2c1cc(O)c(O)c2O` (stereo not given in full), the GI50 was 10.3 µM (inactive) in the assay on CAKI-1; 43.6 µM (inactive) in the assay with HCC 2998; 13.2 µM in the assay with HCT-15; 13.7 µM (inactive) in the assay with HL-60; 18.3 µM (inactive) in the assay on HOP-92; 13.3 µM (inactive) with HT-29. Besides, the GI50 in the assay on IGROV-1 is 25.6 µM (inactive); in the assay with MCF7, 6.05 µM (inactive); with MDA-MB-231, 13.5 µM (inactive); in the assay with NCI-H460, 24.9 µM (inactive); with OVCAR-5 it was 19.7 µM (inactive); in the assay on PC-3, 36.4 µM (inactive). The GI50 was 28.5 µM (inactive) in the assay on RPMI-8226; 24.7 µM (inactive) with SF-268; 16.6 µM (inactive) with SF-295; 96.8 µM (inactive) in the assay on SNB-19; 15 µM (inactive) in the assay with SR; 19 µM (inactive) with SW-620. The GI50 in the assay with T47D was 26.7 µM (inactive); in the assay with U-251, 20.9 µM (inactive).
